How the values were obtained:
Cathepsin B = Cathepsin B (Homo sapiens, UniProt P07858); experiment: Cathepsin B (CatB) cleavage assay; type: biochemical; conditions: for % Parent remaining after incubation with CatB, T = 1 h / % Parent remaining after incubation with CatB, T = 4 h / % Parent remaining after incubation with CatB, T = 24 h: norfloxacin linker compounds; for % Parent remaining after incubation with CatB, 0 h / % Parent remaining after incubation with CatB, 1 h / % Parent remaining after incubation with CatB, 2 h / % Parent remaining after incubation with CatB, 4 h / % Parent remaining after incubation with CatB, 6 h / % Parent remaining after incubation with CatB, 24 h / half-life at 40 μM: BTCs; for half-life at 40 μM: read-out: CatB t1/2 (converted)
Procedure: 15 μL of test compound solution (2 mM in DMSO) was added to the incubation plate in duplicate. 30 μL of Cathepsin B stock solution (16 μM) was pre-activated with 1500 μL activation buffer for 10 min at room temperature. The Cathepsin B solution was diluted in 13.17 mL water, then 735 μL activatived enzyme mixture was added to the incubation plate. The mixture was incubated at 37° C. in a waterbath. […] The samples were mixed and centrifuged at 4000 rpm for 20 min. 50 μL of supernatant was taken into a new plate containing 150 μL ultra-pure water and the samples mixed thoroughly before submitting to LC-MS/MS analysis.

in vitro = conditions: for fold increase in half-life vs Cit-Val: 2 μM; for half-life at 2 μM: plasma
Procedure: Pooled frozen plasma was thawed in a water bath at 37° C. Plasma was centrifuged at 4000 rpm for 5 min and the clots were removed if any. The pH will be adjusted to 7.4±0.1 if required. 1 mM stock solution was prepared with DMSO. Propantheline (positive control) was prepared by making a 100 μM working solution by diluting 5 μL of the stock solution (10 mM) with 495 μL ultra pure water. 100 μM working solutions of test compounds were made up by diluting 10 μL of the stock solution (1 mM) with 90 μL DMSO. 98 μL of blank plasma was spiked with 2 μL of dosing solution (100 μM) to achieve 2 μM of the final concentration in duplicate and samples were incubated at 37° C. in a water bath. […] An aliquot of supernatant (150 μL) was transferred from each well before submitting for LC-MS/MS analysis.
The % remaining test compound after incubation in plasma was calculated using following equation: Remaining=100×(PAR at appointed incubation time/PAR at T0 time)
where PAR is the peak area ratio of analyte versus internal standard (IS).
The half-life (T½) was calculated from a log linear plot of concentration versus time.

[1] = pH 7.4, Mouse plasma t1/2 (EDTA), BTCs, EDTA anticoagulant

% Parent remaining after incubation with CatB, T = 1 h (Cathepsin B) [%] | % Parent remaining after incubation with CatB, T = 4 h (Cathepsin B) [%] | % Parent remaining after incubation with CatB, T = 24 h (Cathepsin B) [%] | fold increase in half-life vs Cit-Val (in vitro; mouse, pH 7.4) [fold] | half-life at 2 μM (in vitro; mouse, pH 7.4) [h] | Structure (SMILES) | % Parent remaining after incubation with CatB, 0 h (Cathepsin B) [%] | % Parent remaining after incubation with CatB, 1 h (Cathepsin B) [%] | % Parent remaining after incubation with CatB, 2 h (Cathepsin B) [%] | % Parent remaining after incubation with CatB, 4 h (Cathepsin B) [%] | % Parent remaining after incubation with CatB, 6 h (Cathepsin B) [%] | % Parent remaining after incubation with CatB, 24 h (Cathepsin B) [%] | half-life at 40 μM (Cathepsin B) [h] | half-life at 2 μM (in vitro; [1]) [h] | half-life at 2 μM (in vitro; pH 7.4, Mouse plasma t1/2 expt 2 (EDTA), BTCs, EDTA anticoagulant, experiment 2) [h]
0 | 0 | 0 | 6.3 | 2.5 | CCn1cc(C(=O)O)c(=O)c2cc(F)c(N3CCN(C(=O)OCc4ccc(NC(=O)[C@H](CCNC(=N)NC)NC(=O)[C@@H](NC(=O)CCCC(=O)N(C)C)C(C)C)cc4)CC3)cc21 [BCY9477] | – | – | – | – | – | – | – | – | –
92 | 63 | 6 | 6.5 | 2.6 | CCn1cc(C(=O)O)c(=O)c2cc(F)c(N3CCN(C(=O)OCc4ccc(NC(=O)[C@H](CN)NC(=O)[C@@H](NC(=O)CCCC(=O)N(C)C)C(C)C)cc4)CC3)cc21 [BCY10298] | – | – | – | – | – | – | – | – | –
72 | 10 | 0 | 3.4 | 1.4 | CCn1cc(C(=O)O)c(=O)c2cc(F)c(N3CCN(C(=O)OCc4ccc(NC(=O)[C@H](CNC(=N)N)NC(=O)[C@@H](NC(=O)CCCC(=O)N(C)C)C(C)C)cc4)CC3)cc21 [BCY10300] | – | – | – | – | – | – | – | – | –
– | – | – | – | – | CC[C@H](C)[C@@H]([C@@H](CC(=O)N1CCC[C@H]1[C@H](OC)[C@@H](C)C(=O)N[C@H](C)[C@@H](O)c1ccccc1)OC)N(C)C(=O)[C@@H](NC(=O)[C@H](C(C)C)N(C)C(=O)OCc1ccc(NC(=O)[C@H](CN)NC(=O)[C@@H](NC(=O)[C@H](CCC(=O)O)NC(=O)Cn2cc(CCC(=O)NCCC(=O)N(C)CC(=O)N(C)CC(=O)N(C)CC(=O)N(C)CC(=O)N(C)CC(=O)N(C)CC(=O)N(C)CC(=O)N(C)CC(=O)N(C)CC(=O)N(C)CC(=O)N[C@@H](C)C(=O)N[C@H]3CN(C)Cc4cc5cc(c4)CN(C)C[C@@H](C(N)=O)NC(=O)[C@H](C(C)(C)C)NC(=O)[C@H](CC(=O)O)NC(=O)[C@H](Cc4ccc(O)cc4)NC(=O)[C@H](Cc4ccccc4)NC(=O)[C@H](CC(=O)O)NC(=O)[C@H](CCC(=O)O)NC(=O)[C@H](CSC5)NC(=O)[C@@H](C)NC(=O)[C@H](Cc4cccc5ccccc45)NC(=O)[C@H](CCC(=O)O)NC(=O)[C@H](CC(N)=O)NC(=O)[C@@H](C)NC3=O)nn2)C(C)C)cc1)C(C)C [BCY10982, MMAE-PAB-(Dap-Val-Glu)-BCY3900] | 100 | 85.435 | 82.3 | 73.1 | 72.3 | 73.91 | > 57.8 | 55.9 | –
3 | 0 | 0 | 1.0 | 0.4 | CCn1cc(C(=O)O)c(=O)c2cc(F)c(N3CCN(C(=O)OCc4ccc(NC(=O)[C@H](CCCNC(N)=O)NC(=O)[C@@H](NC(=O)CCCC(=O)N(C)C)C(C)C)cc4)CC3)cc21 [BCY9422, reference compound] | – | – | – | – | – | – | – | – | –
– | – | – | – | – | CC[C@H](C)[C@@H]([C@@H](CC(=O)N1CCC[C@H]1[C@H](OC)[C@@H](C)C(=O)N[C@H](C)[C@@H](O)c1ccccc1)OC)N(C)C(=O)[C@@H](NC(=O)[C@H](C(C)C)N(C)C(=O)OCc1ccc(NC(=O)[C@H](CCN)NC(=O)[C@@H](NC(=O)[C@H](CCC(=O)O)NC(=O)Cn2cc(CCC(=O)NCCC(=O)N(C)CC(=O)N(C)CC(=O)N(C)CC(=O)N(C)CC(=O)N(C)CC(=O)N(C)CC(=O)N(C)CC(=O)N(C)CC(=O)N(C)CC(=O)N(C)CC(=O)N[C@@H](C)C(=O)N[C@H]3CN(C)Cc4cc5cc(c4)CN(C)C[C@@H](C(N)=O)NC(=O)[C@H](C(C)(C)C)NC(=O)[C@H](CC(=O)O)NC(=O)[C@H](Cc4ccc(O)cc4)NC(=O)[C@H](Cc4ccccc4)NC(=O)[C@H](CC(=O)O)NC(=O)[C@H](CCC(=O)O)NC(=O)[C@H](CSC5)NC(=O)[C@@H](C)NC(=O)[C@H](Cc4cccc5ccccc45)NC(=O)[C@H](CCC(=O)O)NC(=O)[C@H](CC(N)=O)NC(=O)[C@@H](C)NC3=O)nn2)C(c2ccccc2)c2ccccc2)cc1)C(C)C [BCY10987, MMAE-PAB-(Dab-Dpa-Glu)-BCY3900] | 100 | 104.27 | 90.6 | 90.2 | 94 | 91.48 | > 57.8 | > 57.8 | –
0.6 | 0 | 0 | 6.0 | 2.4 | CCn1cc(C(=O)O)c(=O)c2cc(F)c(N3CCN(C(=O)OCc4ccc(NC(=O)[C@H](CCNC(=N)N)NC(=O)[C@@H](NC(=O)CCCC(=O)N(C)C)C(C)C)cc4)CC3)cc21 [BCY9423] | – | – | – | – | – | – | – | – | –
– | – | – | – | – | CC[C@H](C)[C@@H]([C@@H](CC(=O)N1CCC[C@H]1[C@H](OC)[C@@H](C)C(=O)N[C@H](C)[C@@H](O)c1ccccc1)OC)N(C)C(=O)[C@@H](NC(=O)[C@H](C(C)C)N(C)C(=O)OCc1ccc(NC(=O)[C@H](CCN)NC(=O)[C@@H](NC(=O)Cn2cc(CCC(=O)NCCC(=O)N(C)CC(=O)N(C)CC(=O)N(C)CC(=O)N(C)CC(=O)N(C)CC(=O)N(C)CC(=O)N(C)CC(=O)N(C)CC(=O)N(C)CC(=O)N(C)CC(=O)N[C@@H](C)C(=O)N[C@H]3CN(C)Cc4cc5cc(c4)CN(C)C[C@@H](C(N)=O)NC(=O)[C@H](C(C)(C)C)NC(=O)[C@H](CC(=O)O)NC(=O)[C@H](Cc4ccc(O)cc4)NC(=O)[C@H](Cc4ccccc4)NC(=O)[C@H](CC(=O)O)NC(=O)[C@H](CCC(=O)O)NC(=O)[C@H](CSC5)NC(=O)[C@@H](C)NC(=O)[C@H](Cc4cccc5ccccc45)NC(=O)[C@H](CCC(=O)O)NC(=O)[C@H](CC(N)=O)NC(=O)[C@@H](C)NC3=O)nn2)C(C)C)cc1)C(C)C [BCY10989, MMAE-PAB-(Dab-Val)-BCY3900] | 100 | 89.4 | 60.7 | 40.4 | 23.2 | 12.8 | 2.8 | – | 30.8

Structure (SMILES) | % Parent remaining after incubation with CatB, T = 1 h (Cathepsin B) [%] | % Parent remaining after incubation with CatB, T = 4 h (Cathepsin B) [%] | % Parent remaining after incubation with CatB, T = 24 h (Cathepsin B) [%] | fold increase in half-life vs Cit-Val (in vitro; mouse, pH 7.4) [fold] | half-life at 2 μM (in vitro; mouse, pH 7.4) [h] | % Parent remaining after incubation with CatB, 0 h (Cathepsin B) [%] | % Parent remaining after incubation with CatB, 1 h (Cathepsin B) [%] | % Parent remaining after incubation with CatB, 2 h (Cathepsin B) [%] | % Parent remaining after incubation with CatB, 4 h (Cathepsin B) [%] | % Parent remaining after incubation with CatB, 6 h (Cathepsin B) [%] | % Parent remaining after incubation with CatB, 24 h (Cathepsin B) [%] | half-life at 40 μM (Cathepsin B) [h] | half-life at 2 μM (in vitro; [1]) [h] | half-life at 2 μM (in vitro; pH 7.4, Mouse plasma t1/2 expt 2 (EDTA), BTCs, EDTA anticoagulant, experiment 2) [h]
CCn1cc(C(=O)O)c(=O)c2cc(F)c(N3CCN(C(=O)OCc4ccc(NC(=O)[C@H](CCN)NC(=O)[C@@H](NC(=O)[C@H](CCC(=O)O)NC(=O)CCCC(=O)N(C)C)C(C)C)cc4)CC3)cc21 [BCY10122] | 0 | 0 | 0 | 107.5 | 39 | – | – | – | – | – | – | – | – | –
CCn1cc(C(=O)O)c(=O)c2cc(F)c(N3CCN(C(=O)OCc4ccc(NC(=O)[C@H](CCCNC(N)=O)NC(=O)[C@@H](NC(=O)[C@H](CCC(=O)O)NC(=O)CCCC(=O)N(C)C)C(C)C)cc4)CC3)cc21 [BCY9696] | 0 | 0 | 0 | 25.1 | 10.8 | – | – | – | – | – | – | – | – | –
CCn1cc(C(=O)O)c(=O)c2cc(F)c(N3CCN(C(=O)OCc4ccc(NC(=O)[C@H](CCNC(=N)N)NC(=O)[C@@H](NC(=O)[C@H](CCC(=O)O)NC(=O)CCCC(=O)N(C)C)C(C)C)cc4)CC3)cc21 [BCY9695] | 0 | 0 | 0 | 34.1 | 14.3 | – | – | – | – | – | – | – | – | –

Reference: patent US12540161B2, “Linkers” (BicycleTx Limited, priority 2020, dated 2026)
